{"source": "patent EP0364584A1", "about": "“ANTIDOTE FOR ORGANIC PHOSPHORUS COMPOUND POISONING” (priority 1988, dated 1989)", "key": {"[1]": {"assay": "Content of the drugs in blood and brain after intramuscular administration (Askew method)", "assay_type": "in vivo, Ratten", "conditions": "for concentration at 2 h: 2 St., read-out: Konzentration (µg/g) 2 St. (converted); for concentration at 3 h: 3 St., read-out: Konzentration (µg/g) 3 St.; for concentration at 5 min: read-out: Konzentration (µg/g) 5 min; for concentration at 20 min: read-out: Konzentration (µg/g) 20 min (converted); for concentration at 0.5 h: 30 min, read-out: Konzentration (µg/g) 30 min; for concentration at 1 h: read-out: Konzentration (µg/g) I St.; for concentration at 10 min: IO min, read-out: Konzentration (µg/g) IO min (converted)", "procedure": "Mit Hilfe der Methode von Askew (1956) wurde in der Dynamik der Gehalt des erfindungsgemäßen Arzneimittels im Blut und Gehirn der Tiere untersucht. Die Untersuchungen wurden im Vergleich zum bekannten Präparak TMB-4 vorgenommen. Die Geschwindigkeit des Eindringens beider Präparate ins Blut und deren Konzentration wurden bei der-intramuskulären Einführung in Dosen von 20 ..und 50 mg/kg und der Gehirnspiegel - in einer Dosis von 50 mg/kg bestimmt. […]\nEs wurde festgestellt, daß die Präparate schnell (nach 5 min) von der Einführungsstelle ins Blut eindringen, dabei wurde unabhängig von der Prüfdosis der Präparate deren Maximalgehalt im Blut 20 min nach der Einführung beobachtet, zwar erhöhte die Vergrößerung der Dosis der Präparate bis 50 mg/kg wesentlich deren Konzentrationsniveau während der ganzen Beobachtungsfrist.\nDie im Vergleich zu TMB-4 durchgeführten Untersuchungen haben ergeben, dass während der ersten Stunde der Blutgehalt und das Anwachsen der Konzentrationen beider Präparate gleich waren. […] Die Untersuchungsergebnisse sind in der Tabelle 3 angeführt.\nNach den Ergebnissen der durchgeführten Untersuchungen wurde festgestellt, dass das erfindungsgemässe Arz- neimittel bei der intramuskulären Einführung schnell ins Blut und Gehirn des Tieres eindringt und zum Unterschied von TMB-4 eine längere Zeit im 3lutstrom zirkuliert und von 5 min an bis 4 Stunden Beobachtung im Gehirn in bedeutend grösseren Mengen enthalten ist."}, "[2]": {"assay": "Acute toxicity, single administration, cats", "conditions": "cat, in vivo, im; Katzen, intramuskulär; read-out: LD50 (mg/kg) und deren zuverlässige Grenzen P = 0,05", "source_text": "(§1) Die Toxizität des erfindungsgemässen Arzneimittels bei der einmaligen Einführung (die akute Toxizität) wurde an geschlechtsreifen Tieren (an Mäusen, Ratten, Katzen, Hunden) bestimmt. Die Analyse der experimentellen Angaben für Mäuse und Ratten wurde nach der Methode der Probit-Analyse nach Litchfield und Wilcoxon, und für Hunde und Katzen nach der Methode der Anreicherung der Frequenz nach Behrens durchgeführt.\n(§2) Die Toxizitätsparameter LD50 wurden für Mause bei der intraperitonealen und subkutanen Einführung, für Ratten bei der subkutanen, intramuskulären und enteralen Einführung, für Katzen bei der intramuskulären Einführung und für Hunde bei der subkutanen Einführung bestimmt."}, "[3]": {"assay": "Acute toxicity, single administration, dogs", "conditions": "dog, in vivo, sc; Hunde, subkutan; read-out: LD50 (mg/kg) und deren zuverlässige Grenzen P = 0,05", "source_text": "as §1, §2"}, "[4]": {"assay": "Acute toxicity, single administration, mice", "conditions": "mouse, in vivo, Mäuse, read-out: LD50 (mg/kg) und deren zuverlässige Grenzen P = 0,05", "source_text": "as §1, §2"}, "[5]": {"system": "kardiovaskuläre System und die Atmung", "assay": "Effect on cardiovascular system, respiration and muscle", "assay_type": "in vivo"}, "[6]": {"target": "T1, Azetylcholinesterase des Rattengehirns (Rattus norvegicus, UniProt P37136)", "T1 construct": "Azetyl- und Buty rylcholinesterase des Rattengehirns; from tissue; host or cells: rat brain sections after in vivo dosing", "T1 sequence (P37136 32-614)": "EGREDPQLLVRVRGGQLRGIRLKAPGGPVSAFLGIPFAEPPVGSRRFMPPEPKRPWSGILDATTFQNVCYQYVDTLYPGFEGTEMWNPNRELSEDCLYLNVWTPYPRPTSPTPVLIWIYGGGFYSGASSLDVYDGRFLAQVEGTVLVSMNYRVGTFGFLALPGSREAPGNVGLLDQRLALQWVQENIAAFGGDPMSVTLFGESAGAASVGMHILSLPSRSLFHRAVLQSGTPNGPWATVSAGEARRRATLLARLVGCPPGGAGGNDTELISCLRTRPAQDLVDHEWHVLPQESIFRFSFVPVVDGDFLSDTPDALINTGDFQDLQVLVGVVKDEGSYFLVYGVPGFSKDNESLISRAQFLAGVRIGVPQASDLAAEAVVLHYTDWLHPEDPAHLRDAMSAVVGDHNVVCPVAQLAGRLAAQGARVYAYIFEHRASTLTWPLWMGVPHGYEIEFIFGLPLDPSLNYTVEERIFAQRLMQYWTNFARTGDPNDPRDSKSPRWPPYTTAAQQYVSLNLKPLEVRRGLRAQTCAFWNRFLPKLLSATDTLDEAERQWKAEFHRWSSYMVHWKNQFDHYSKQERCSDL", "assay": "Histochemical study of acetylcholinesterase activity in rat brain", "assay_type": "in vivo, Ratten", "source_text": "Nach den histochemischen Methoden wurde der Einfluss des erfindungsgemässen Arzneimittels auf die Aktivität der Azetyl- und Buty rylcholinesterase des Rattengehirns untersucht und es wurde gezeigt, dass dieser von der Dosis des Arzneimittels und der Einführungszeit abhängt. […] Die Fermenthemmung wird bis 2 Stunden lang beobachtet, nachher folgt eine unbedeutende Aktivierung der Azetylcholinesterase, die bis 24 Stunden aufrechterhalten bleibt."}, "[7]": {"assay": "Acute toxicity, single administration, rats", "conditions": "rat, in vivo, Ratten, read-out: LD50 (mg/kg) und deren zuverlässige Grenzen P = 0,05"}, "Versuchstiere": {"system": "Versuchstiere", "assay": "Prolonged administration to test animals (blood, urine)", "assay_type": "in vivo", "source_text": "Nur zu einer späteren Beobachtungsperiode (4 bis 9 Tage) wurde eine unbedeutende Erhöhung der Gesamtleukozytenzahl nachgewiesen. Am 3. Tag trat auch eine geringe Aktivierung der Blutcholinesterase auf, in den nachfolgenden Beobachtungstagen (4 bis 9 Tage) überstieg jedoch die Aktivität des Ferments das Ausgangsniveau nicht.\nDie morpholigischen Untersuchungen der inneren Organe der Versuchstiere legten keine pathologischen Veränderungen im Vergleich zur Kontrolle an den Tag."}, "[8]": {"system": "Gehirn der Tiere (Ratten)", "assay": "Morphological and histochemical examination of the brain", "assay_type": "in vivo", "conditions": "Dosen 5, 20 und 50 mg/kg; no haemorrhages", "procedure": "Der Grad deren Ausgeprägtheit wird etwas höher und länger in den Gehirnstrukturen (3 Tage) bei einer Dosis des erfindungsgemässen Arzneimittels von 50 mg/kg aufrechterhalten, als bei Dosen von 5 und 20 mg/kg. Die Kapillarhyperämie wird durch keine Blutergüsse und Störungen des argyrophilen Gestells der Hirnblutgefässe begleitet. Die morphologische und histochemische Untersuchung des Rattengehirns, denen das erfindungsgemässe Arzneimittel in Dosen von 5, 20 und 50 mg/kg eingeführt wurde, gestattet, die erhaltenen Veränderungen als funktionelle einzuschätzen (die Schwankung der Aktivität der Azetylcholinesterase und der Butyrylcholinesterase, die […] Hyperämie), die von einer deutlichen Neurotropie des Arzneimittels zeugen."}, "[9]": {"conditions": "rat, blood, im, Blut, Dosis 20 mg/kg intramuskulär, Ratten"}, "[10]": {"conditions": "rat, blood, im, Blut, Dosis 50 mg/kg intramuskulär, Ratten"}, "[11]": {"conditions": "rat, brain, im, Gehirn, Dosis 50 mg/kg intramuskulär, Ratten"}}, "note": "Where two headings read alike, the source gives them in different places."}
{"molecule": "C=CC[n+]1ccccc1C=NO", "note": "[das erfindungsgemässe Arzneimittel, N-Allyl-2-pyridinaldoxiinbromid]", "values": [{"measurement": "Konzentration (µg/g) I St.", "setting": "[1]; Blut, Dosis 50 mg/kg intramuskulär, I St., Ratten", "value": "IO,I"}, {"measurement": "Konzentrationsniveau im Blut im Vergleich zu TMB-4", "setting": "[1]; late time points (printed: 3 und 1 Stunden)", "value": "ungefähr um das Doppelte"}, {"measurement": "concentration at 2 h", "setting": "[1]; [9]", "value": 2.3, "unit": "µg/g"}, {"measurement": "concentration at 3 h", "setting": "[1]; [9]", "value": 0.92, "unit": "µg/g"}, {"measurement": "concentration at 5 min", "setting": "[1]; [9]", "value": 2.95, "unit": "µg/g"}, {"measurement": "concentration at 20 min", "setting": "[1]; [9]", "value": 5.16, "unit": "µg/g"}, {"measurement": "concentration at 0.5 h", "setting": "[1]; [9]", "value": 4.7, "unit": "µg/g"}, {"measurement": "concentration at 1 h", "setting": "[1]; rat, blood, im, Blut, Dosis 20 mg/kg intramuskulär, I St., Ratten", "value": 4.4, "unit": "µg/g"}, {"measurement": "concentration at 10 min", "setting": "[1]; [9]", "value": 4.95, "unit": "µg/g"}, {"measurement": "concentration at 2 h", "setting": "[1]; [10]", "value": 4.6, "unit": "µg/g"}, {"measurement": "concentration at 3 h", "setting": "[1]; [10]", "value": 3.6, "unit": "µg/g"}, {"measurement": "concentration at 5 min", "setting": "[1]; [10]", "value": 16.2, "unit": "µg/g"}, {"measurement": "concentration at 20 min", "setting": "[1]; [10]", "value": 18, "unit": "µg/g"}, {"measurement": "concentration at 0.5 h", "setting": "[1]; [10]", "value": 12.7, "unit": "µg/g"}, {"measurement": "concentration at 10 min", "setting": "[1]; [10]", "value": 19, "unit": "µg/g"}, {"measurement": "Tmax", "setting": "[1]; rat, blood, im, intramuskuläre Einführung, summary statement, read-out: Maximalniveau erreicht nach", "value": "20 to 30", "unit": "min"}, {"measurement": "concentration at 2 h", "setting": "[1]; [11]", "value": 1.12, "unit": "µg/g"}, {"measurement": "concentration at 3 h", "setting": "[1]; [11]", "value": 0.64, "unit": "µg/g"}, {"measurement": "concentration at 5 min", "setting": "[1]; [11]", "value": 2.64, "unit": "µg/g"}, {"measurement": "concentration at 20 min", "setting": "[1]; [11]", "value": 4, "unit": "µg/g"}, {"measurement": "concentration at 0.5 h", "setting": "[1]; [11]", "value": 3.75, "unit": "µg/g"}, {"measurement": "concentration at 1 h", "setting": "[1]; rat, brain, im, Gehirn, Dosis 50 mg/kg intramuskulär, I St., Ratten", "value": 2.06, "unit": "µg/g"}, {"measurement": "concentration at 10 min", "setting": "[1]; [11]", "value": 5.65, "unit": "µg/g"}, {"measurement": "LD50", "setting": "[2]", "value": 126, "unit": "mg/kg"}, {"measurement": "LD50", "setting": "[3]", "value": 112, "unit": "mg/kg"}, {"measurement": "LD50", "setting": "[4]; ip, intraperitoneal", "value": 64, "unit": "mg/kg"}, {"measurement": "LD50", "setting": "[4]; sc, subkutan", "value": 115, "unit": "mg/kg"}, {"measurement": "myotrope Wirkung", "setting": "[5]; in vivo", "value": "keine myotrope Wirkung"}, {"measurement": "arterieller Blutdruck", "setting": "[5]; intravenöse Einführung (12 bis 15 mg/kg)", "value": "setzte unbedeutend für eine kürzere Zeit den arteriellen Blutdruck herab"}, {"measurement": "Einfluss auf das kardiovaskuläre System und die Atmung", "setting": "[5]; subkutane Einführung in hohen Dosen (10 und 20 mg/kg)", "value": "keinen Einfluss"}, {"measurement": "Einfluss auf die Aktivität der Azetyl- und Butyrylcholinesterase des Rattengehirns", "setting": "[6]; Dosis 5 mg/kg, histochemical", "value": "keine Abweichung der Fermentaktivität von der Norm"}, {"measurement": "Einfluss auf die Aktivität der Azetylcholinesterase", "setting": "[6]; Dosis 20 mg/kg, except white matter of hemispheres and Formatio reticularis neurons (inhibition 30 min bis 2 Stunden)", "value": "verändert es auch im wesentlichen die Aktivität der Azetylcholinesterase nicht"}, {"measurement": "Einfluss auf die Aktivität der Azetylcholinesterase", "setting": "[6]; Dosis 50 mg/kg, several brain structures, inhibition bis 2 Stunden, then slight activation bis 24 Stunden", "value": "deutlicher ausgeprägte Veränderungen der Azetylcholinesteraseaktivität"}, {"measurement": "Aktivität der Azetylcholinesterase in den Neuronen der Grosshirnrinde", "setting": "[6]; Dosis 20 und 50 mg/kg", "value": "keine Veränderungen der Aktivität der Azetylcholinesterase festgestellt"}, {"measurement": "LD50", "setting": "[7]; ip, intraperitoneal", "value": 135, "unit": "mg/kg"}, {"measurement": "LD50", "setting": "[7]; po, enteral", "value": 260, "unit": "mg/kg"}, {"measurement": "LD50", "setting": "[7]; sc, subkutan", "value": 200, "unit": "mg/kg"}, {"measurement": "Einfluss auf den Bestand des peripheren Bluts", "setting": "Versuchstiere; dauernde Anwendung, slight rise of leukocytes at 4 bis 9 Tage", "value": "keinen merklichen Einfluss"}, {"measurement": "Harnbestand", "setting": "Versuchstiere; längere Einführung", "value": "veränderte nicht den Harnbestand"}, {"measurement": "Histochemische Untersuchungen des Gehirns", "setting": "[8]", "value": "allgemeine unbedeutende Kapillarhyperämie"}]}
